Test [1] concerns the target T1, CFTR-mediated transepithelial chloride transport in primary human bronchial epithelial cells from a ΔF508 homozygous CF donor (Homo sapiens, UniProt P13569, DEL508-508).
T1 construct: Primary human bronchial epithelial cells from a ΔF508 homozygous CF donor; host or cells: primary CF-HBE cells, ΔF508 homozygous donor
Put plainly: TECC24 recording of CFTR-mediated transepithelial chloride transport in CF-HBE cells (AUC fold over DMSO). It is filed as cell-based. The settings on record: test agent 10 μM, 48 hours incubation, AUC of forskolin-stimulated IEQ relative to DMSO. The method, boiled down: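 Equivalent Cl⁻ current was derived from transepithelial voltage and resistance, and its AUC from forskolin (10 μM) to CFTRinh-172 (20 μM) was divided by the DMSO AUC. Benzamil 10 μM blocked ENaC. Cells were ΔF508-homozygous primary bronchial epithelia pretreated 48 h at 36.5 °C in IL-13 medium.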

Test [2] concerns the target T2, human Cystic Fibrosis Transmembrane Conductance Regulator (CFTR) harboring the ΔF508 mutation (Homo sapiens, UniProt P13569, DEL508-508).
T2 construct: expressed in transfected cells; host or cells: H441 carcinoma line (G418-selected)
Put plainly: H441 cell ΔF508-CFTR-HRP cell surface assay (Emax and EC50). It is filed as cell-based. The note with it: for Emax: NCI-H441, NA = Not active. Put shortly:
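H441 and 41o- bronchial epithelial cells expressing ΔF508-CFTR with an extracellular-loop-4 HRP tag were treated with a 15-point compound series (24.5–0.001 μM) for two nights, H441 at 27° C, 41o- at 37° C with 0.0005 mg/ml doxycycline. Surface HRP luminescence read; % of maximum VX809 signal and EC50 derived.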

pEC50: −log10 of the molar value.

T2 sequence (P13569 with tags, fused parts or gaps DEL508-508): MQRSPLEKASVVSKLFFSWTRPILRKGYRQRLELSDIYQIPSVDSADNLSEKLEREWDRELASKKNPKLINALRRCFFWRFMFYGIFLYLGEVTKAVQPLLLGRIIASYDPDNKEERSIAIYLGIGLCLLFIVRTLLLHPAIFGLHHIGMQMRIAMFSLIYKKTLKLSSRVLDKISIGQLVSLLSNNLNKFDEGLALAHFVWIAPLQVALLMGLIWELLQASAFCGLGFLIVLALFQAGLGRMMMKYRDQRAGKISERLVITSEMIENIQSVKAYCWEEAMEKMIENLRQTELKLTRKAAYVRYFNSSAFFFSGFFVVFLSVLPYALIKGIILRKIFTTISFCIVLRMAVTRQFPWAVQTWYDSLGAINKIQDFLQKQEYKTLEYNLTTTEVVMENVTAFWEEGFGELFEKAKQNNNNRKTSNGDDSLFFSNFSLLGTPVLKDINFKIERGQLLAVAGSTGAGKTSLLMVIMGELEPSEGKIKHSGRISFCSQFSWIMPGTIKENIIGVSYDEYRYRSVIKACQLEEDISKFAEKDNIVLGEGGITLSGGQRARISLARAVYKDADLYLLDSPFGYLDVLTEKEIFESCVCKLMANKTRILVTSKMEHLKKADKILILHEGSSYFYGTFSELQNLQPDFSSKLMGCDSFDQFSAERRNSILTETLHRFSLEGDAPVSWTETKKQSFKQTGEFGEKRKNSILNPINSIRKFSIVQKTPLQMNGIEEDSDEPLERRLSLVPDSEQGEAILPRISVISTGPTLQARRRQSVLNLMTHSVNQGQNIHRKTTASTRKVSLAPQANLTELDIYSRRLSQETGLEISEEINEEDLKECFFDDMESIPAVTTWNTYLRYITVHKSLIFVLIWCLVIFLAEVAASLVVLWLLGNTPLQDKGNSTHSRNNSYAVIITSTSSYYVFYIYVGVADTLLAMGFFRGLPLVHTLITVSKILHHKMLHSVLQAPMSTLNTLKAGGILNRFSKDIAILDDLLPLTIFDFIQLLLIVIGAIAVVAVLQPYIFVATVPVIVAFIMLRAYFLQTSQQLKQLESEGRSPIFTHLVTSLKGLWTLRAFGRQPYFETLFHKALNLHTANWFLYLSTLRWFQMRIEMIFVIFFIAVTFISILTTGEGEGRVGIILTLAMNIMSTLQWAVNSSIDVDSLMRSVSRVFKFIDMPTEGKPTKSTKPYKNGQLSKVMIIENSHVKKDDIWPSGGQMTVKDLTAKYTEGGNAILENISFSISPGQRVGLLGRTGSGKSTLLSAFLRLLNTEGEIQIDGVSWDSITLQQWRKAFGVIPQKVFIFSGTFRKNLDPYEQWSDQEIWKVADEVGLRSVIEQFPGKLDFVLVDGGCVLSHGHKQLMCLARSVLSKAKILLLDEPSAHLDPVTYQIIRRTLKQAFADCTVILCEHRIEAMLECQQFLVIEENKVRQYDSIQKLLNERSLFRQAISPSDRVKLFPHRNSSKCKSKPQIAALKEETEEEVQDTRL
T1 sequence (P13569 with tags, fused parts or gaps DEL508-508): as above

One may read the pEC50 as the EC50 on a negative log10 scale, so that one unit is a factor of ten. By Emax is commonly meant the size of the effect at its maximum, as opposed to the concentration needed. As for `CC(C)(C)[C@H](NC(=O)c1ccc2ccccc2c1OC[C@H]1CC[C@H](C(F)(F)F)CC1)C(=O)O` [Example 222, (2S)-3,3-dimethyl-2-[[1-[[4-(trifluoromethyl)cyclohexyl]methoxy]naphthalene-2-carbonyl]amino]butanoic Acid], the “TECC24 AUC fold over DMSO @10 μM” value in test [1] is “A (“A” refers to AUC @10 uM >6)”. Further, in test [2], the negative logarithm of the EC50 (pEC50) is 5.54 and the maximal response (Emax) came to 154%.

On to `C=CC(C)(C)C(NC(=O)c1ccc2ccccc2c1OCc1ccc(C(F)(F)F)cc1)C(=O)O` (stereo not drawn) [Example 223, 3,3-dimethyl-2-[[1-[[4-(trifluoromethyl)phenyl]methoxy]naphthalene-2-carbonyl]amino]pent-4-enoic Acid], for which, in test [1], the “TECC24 AUC fold over DMSO @10 μM” value is “B (“B” refers to AUC @10 uM between 4-6)”. Also, in test [2], the pEC50 was 6.10 and the Emax stood at 112%.

With `CCC(C)(C)[C@H](NC(=O)c1ccc2cc(C)ccc2c1OCc1ccc(C(F)(F)F)cc1)C(=O)O` [Example 225, (2S)-3,3-dimethyl-2-[[6-methyl-1-[[4-(trifluoromethyl)phenyl]methoxy]naphthalene-2-carbonyl]amino]pentanoic Acid], the “TECC24 AUC fold over DMSO @10 μM” value in test [1] was “A (“A” refers to AUC @10 uM >6)”. Further, in test [2], the pEC50 was 4.91 and the Emax was found to be 97%.

As for `CCC(C)(C)[C@H](NC(=O)c1ccc2c(F)cccc2c1OCc1ccc(OC(F)(F)F)cc1)C(=O)O` [Example 226, (2S)-2-[[5-fluoro-1-[[4-(trifluoromethoxy)phenyl]methoxy]naphthalene-2-carbonyl]amino]-3,3-dimethyl-pentanoic Acid], the “TECC24 AUC fold over DMSO @10 μM” value in test [1] is on record as “B (“B” refers to AUC @10 uM between 4-6)”. In test [2], this compound had a negative-log EC50 (pEC50) of 6.40 and an Emax of 139%.

As for `C#CC(C)(C)C(NC(=O)c1ccc2ccccc2c1OCc1ccc(SC(F)(F)F)cc1)C(=O)O` (stereo not drawn) [Example 227, 3,3-dimethyl-2-[[1-[[4-(trifluoromethylsulfanyl)phenyl]methoxy]naphthalene-2-carbonyl]amino]pent-4-ynoic Acid], in test [1], the “TECC24 AUC fold over DMSO @10 μM” value was “C (“C” refers to AUC @10 uM <4)”. Besides, in test [2], the pEC50 was 5.89 and the Emax is 160%.

As for `C#CC(C)(C)C(NC(=O)c1ccc2ccccc2c1OCc1ccc(C(F)(F)F)cc1)C(=O)O` (stereo not drawn) [Example 228, 3,3-dimethyl-2-[[1-[[4-(trifluoromethyl)phenyl]methoxy]naphthalene-2-carbonyl]amino]pent-4-ynoic Acid], the “TECC24 AUC fold over DMSO @10 μM” value in test [1] is listed as “A (“A” refers to AUC @10 uM >6)”. Further, in test [2], the pEC50 is 5.70 and the Emax turned out to be 215%.

Regarding `CCC(C)(C)[C@H](NC(=O)c1ccc2c(F)cccc2c1OCc1ccc(C(F)(F)F)cc1)C(=O)O` [Example 230, (2S)-2-[[5-fluoro-1-[[4-(trifluoromethyl)phenyl]methoxy]naphthalene-2-carbonyl]amino]-3,3-dimethyl-pentanoic Acid], the “TECC24 AUC fold over DMSO @10 μM” value in test [1] is listed as “A (“A” refers to AUC @10 uM >6)”. In test [2], this compound gave a pEC50 of 6.22 and an Emax of 152%.

For the compound `CC(C)(C)[C@H](NC(=O)c1ccc2ccccc2c1OCc1ccc([N+](=O)[O-])cc1)C(=O)O` [Example 231, (2S)-3,3-dimethyl-2-[[1-[(4-nitrophenyl)methoxy]naphthalene-2-carbonyl]amino]butanoic Acid], the “TECC24 AUC fold over DMSO @10 μM” value in test [1] is “C (“C” refers to AUC @10 uM <4)”. In test [2], this compound gave a pEC50 of 5.11 and an Emax of 70.1%.

On to `Cc1ccc2c(OCc3ccc(C(F)(F)F)cc3)c(C(=O)N[C@H](C(=O)O)C(C)(C)C)ccc2c1` [Example 233, (2S)-3,3-dimethyl-2-[[6-methyl-1-[[4-(trifluoromethyl)phenyl]methoxy]naphthalene-2-carbonyl]amino]butanoic Acid], for which the “TECC24 AUC fold over DMSO @10 μM” value in test [1] was “A (“A” refers to AUC @10 uM >6)”. In test [2], this compound gave a pEC50 of 4.91 and an Emax of 156%.

Turning to `C#CC(C)(C)C(NC(=O)c1ccc2ccccc2c1OCc1ccc(OC(F)(F)F)cc1)C(=O)O` (stereo not drawn) [Example 234, 3,3-dimethyl-2-[[1-[[4-(trifluoromethoxy)phenyl]methoxy]naphthalene-2-carbonyl]amino]pent-4-ynoic Acid], the “TECC24 AUC fold over DMSO @10 μM” value in test [1] was “A (“A” refers to AUC @10 uM >6)”. In test [2], this compound showed a pEC50 of 5.89 and an Emax of 140%.

For the compound `CC(C)(C)[C@H](NC(=O)c1ccc2c(F)cccc2c1OCc1ccc(C(F)(F)F)cc1)C(=O)O` [Example 236, (2S)-2-[[5-fluoro-1-[[4-(trifluoromethyl)phenyl]methoxy]naphthalene-2-carbonyl]amino]-3,3-dimethyl-butanoic Acid], the “TECC24 AUC fold over DMSO @10 μM” value in test [1] is “B (“B” refers to AUC @10 uM between 4-6)”. In test [2], this compound showed a pEC50 of 6.00 and an Emax of 130%.

With `CC(C)(C)[C@H](NC(=O)c1ccc2ccc(Cl)cc2c1OCc1ccc(OC(F)(F)F)cc1)C(=O)O` [Example 237, (S)-2-(7-chloro-1-((4-(trifluoromethoxy)benzyl)oxy)-2-naphthamido)-3,3-dimethyl Butanoic Acid], the “TECC24 AUC fold over DMSO @10 μM” value in test [1] is “A (“A” refers to AUC @10 uM >6)”. In test [2], this compound had a pEC50 of 7.00 and an Emax of 275%.

`O=C(NC(C(=O)O)C1(C(F)(F)F)CC1)c1ccc2ccc(Cl)cc2c1OCc1ccc(OC(F)(F)F)cc1` (stereo not drawn) [Example 238, 2-(7-chloro-1-((4-(trifluoromethoxy)benzyl)oxy)-2-naphthamido)-2-(1-(trifluoromethyl)cyclopropyl)acetic Acid]: in test [1], the “TECC24 AUC fold over DMSO @10 μM” value was “C (“C” refers to AUC @10 uM <4)”. In test [2], this compound gave a pEC50 of 6.10 and a maximal response (Emax) of 143%.

In the case of `CC(C)(C)[C@H](NC(=O)c1ccc2ccc(F)cc2c1OCc1ccc(OC(F)(F)F)cc1)C(=O)O` [Example 239, (S)-2-(7-fluoro-1-((4-(trifluoromethoxy)benzyl)oxy)-2-naphthamido)-3,3-dimethyl Butanoic Acid], in test [1], the “TECC24 AUC fold over DMSO @10 μM” value is reported as “A (“A” refers to AUC @10 uM >6)”. In test [2], this compound gave a pEC50 of 6.52 and an Emax of 235%.

`O=C(NC(C(=O)O)C1(C(F)(F)F)CC1)c1ccc2ccc(F)cc2c1OCc1ccc(OC(F)(F)F)cc1` (stereo not drawn) [Example 240, 2-(7-fluoro-1-((4-(trifluoromethoxy)benzyl)oxy)-2-naphthamido)-2-(1-(trifluoromethyl)cyclopropyl)acetic Acid]: in test [1], the “TECC24 AUC fold over DMSO @10 μM” value is recorded as “C (“C” refers to AUC @10 uM <4)”. Moreover, in test [2], the pEC50 is 6.10 and the Emax was determined as 122%.

As to `CC(C)(C)[C@H](NC(=O)c1ccc2ccc(F)cc2c1OCc1ccc(C(F)(F)F)cc1)C(=O)O` [Example 241, (S)-2-(7-fluoro-1-((4-(trifluoromethyl)benzyl)oxy)-2-naphthamido)-3,3-dimethylbutanoic Acid], in test [1], the “TECC24 AUC fold over DMSO @10 μM” value is given as “A (“A” refers to AUC @10 uM >6)”. Further, in test [2], the pEC50 was 7.00 and the Emax worked out at 236%.

With `CCC(C)(C)[C@H](NC(=O)c1ccc2ccc(C(F)F)cc2c1OCc1ccc(C(F)(F)F)cc1)C(=O)O` [Example 242, (2S)-2-[[7-(difluoromethyl)-1-[[4-(trifluoromethyl)phenyl]methoxy]naphthalene-2-carbonyl]amino]-3,3-dimethyl-pentanoic Acid], the “TECC24 AUC fold over DMSO @10 μM” value in test [1] is listed as “A (“A” refers to AUC @10 uM >6)”. In test [2], this compound showed a negative-log EC50 (pEC50) of 7.00 and a maximal response (Emax) of 368%.

On to `CC(C)(C)[C@H](NC(=O)c1ccc2ccc(-c3cscn3)cc2c1OCc1ccc(C(F)(F)F)cc1)C(=O)O` [Example 243, (2S)-3,3-dimethyl-2-[[7-thiazol-4-yl-1-[[4-(trifluoromethyl)phenyl]methoxy]naphthalene-2-carbonyl]amino]butanoic Acid], for which the “TECC24 AUC fold over DMSO @10 μM” value in test [1] is “A (“A” refers to AUC @10 uM >6)”. In test [2], this compound had a pEC50 of 6.30 and an Emax of 159%.

For `CC(C)(C)[C@H](NC(=O)c1ccc2ccc(C(F)F)cc2c1OCc1ccc(C(F)(F)F)cc1)C(=O)O` [Example 244, (2S)-2-[[7-(difluoromethyl)-1-[[4-(trifluoromethyl)phenyl]methoxy]naphthalene-2-carbonyl]amino]-3,3-dimethyl-butanoic Acid], the “TECC24 AUC fold over DMSO @10 μM” value in test [1] is reported as “A (“A” refers to AUC @10 uM >6)”. Also, in test [2], the pEC50 was 7.00 and the Emax stood at 365%.

In the case of `CC(C)(C)[C@H](NC(=O)c1ccc2ccc(C(F)F)cc2c1OCc1ccc(OC(F)(F)F)cc1)C(=O)O` [Example 245, (2S)-2-[[7-(difluoromethyl)-1-[[4-(trifluoromethoxy)phenyl]methoxy]naphthalene-2-carbonyl]amino]-3,3-dimethyl-butanoic Acid], in test [1], the “TECC24 AUC fold over DMSO @10 μM” value was “A (“A” refers to AUC @10 uM >6)”. In test [2], the pEC50 was 7.00 and the Emax turned out to be 284%.

Regarding `CCCC(C)(C)[C@H](NC(=O)c1ccc2ccc(C(F)F)cc2c1OCc1ccc(C(F)(F)F)cc1)C(=O)O` [Example 246, (2S)-2-[[7-(difluoromethyl)-1-[[4-(trifluoromethyl)phenyl]methoxy]naphthalene-2-carbonyl]amino]-3,3-dimethylhexanoic Acid], in test [1], the “TECC24 AUC fold over DMSO @10 μM” value is “A (“A” refers to AUC @10 uM >6)”. In test [2], this compound had a pEC50 of 7.00 and an Emax of 442%.
